According to patent US20260248833A1, “PYRIMIDINE NUCLEOSIDE TREATMENTS” (The Children`s Medical Center Corporation, priority 2022, published 2026):
“Also recorded” adds a separate entry of the source.

Legend:
[1] = tested on: super-telomerase cells (TERC-null 293T cells transfected with TERT and TERC); assay: TRF Southern blot telomere synthesis in super-telomerase cells; format: cell-based, human; settings: treatment for 30 hours
Method: (§1) Terminal Restriction Fragment Length Analysis: genomic DNA was isolated from cells using the Invitrogen Purelink Genomic DNA mini kit (Invitrogen). 1-3 μg of gDNA was digested with RsaI and HinfI for 2-3 hrs at 37° C. and loaded onto a 0.6% agarose gel followed by Southern blotting using the Telotaggg Telomere Length Assay Kit (Roche). Quantification was performed using the WALTER webtool.
dT supplementation increases levels of dTTP and can reduce dCTP levels, leading to replication stress at high doses. Because replication stress signaling has been implicated in telomerase biology we asked whether replication stress induction explained the telomere length increases seen with dT treatment. We first tested whether telomere elongation is a universal response to replication stress-inducing compounds. […] However, cytotoxicity limited our ability to apply higher doses of replication stress-inducing compounds for time periods long enough to study telomere length changes. […] Using this system, we next asked how high-dose treatment with replication stress-inducing agents such as aphidicolin, hydroxyurea, and the TYMS inhibitor 5FU influence telomere synthesis compared to dT.

[2] = tested on: pCHK1-S345 and pRPA32-S33; assay: Immunoblot of replication stress signaling in super-telomerase cells; format: cell-based, human; settings: highest doses, 30 hours
[3] = tested on: T-free super-telomerase expressing cells (293T TERC-null); assay: Slot blot of GGAAAG repeat content in cellular DNA; format: cell-based, human; settings: 5FU (10 μM) or HU (500 μM)
Method: Slot blotting: slot blotting was performed as described with minor modifications. Briefly, DNA concentration was normalized to 20 ng/μl using a nanodrop spectrophotometer. 3.3 μl of DNA was added to 16.5 μl of denaturation solution (0.5 M NaOH, 1.5 M NaCl) and heated to 55° C. for 30 minutes. 495 μl of neutralization solution (0.5 M Tris-HCl, 1.5 M NaCl) was added to denatured DNA and 156 μl of this solution was added in triplicate to different slots on a Bio-Dot SF Apparatus (Bio-Rad) and blotted onto Hybond N+ Membrane (Cytivia). Membrane preparation and washing was performed as described. For samples with paired GGTTAG and GGAAAG slot blots, the above recipe was doubled, and 156 μl was loaded onto parallel membranes in triplicate on each membrane. After blotting, membranes were hybridized and detected as described above for TRF Southern blots using the probe indicated in the figure. Blots were analyzed using ImageJ. Statistical analysis was performed using Graphpad prism V9.1.0.

293T cells = assay: Terminal restriction fragment (TRF) Southern blot telomere length, 293T cells; format: cell-based, human
Method: (§2) Cell culture: K562 cells (ATCC) were grown in RPMI1 1640 (Gibco) media supplemented with 10% fetal bovine serum. 293T cells (ATCC) were grown in DMEM (Gibco) supplemented with 10% fetal bovine serum, and were subcultured using 0.05% trypsin (Gibco). iPSCs were derived, characterized and cultured as previously described. iPSCs were grown in Essential 8 Media (Life Technologies) supplemented with the ROCK inhibitor Y271632 (Stem Cell Technologies) at 10 μM on plates coated with hES qualitied Matrigel matrix (Corning) and were subcultured using Accutase (Stem Cell Technologies).
as §1

K562 cells = assay: Terminal restriction fragment (TRF) Southern blot telomere length, K562 cells; format: cell-based, human; settings: K562 cells
Method: as §2, §1

telomere length = assay: Telomere length with cytidine and uridine (FIG. 23); format: cell-based
[4] = co-administration with dT; cited from earlier work
[5] = at pH of about 7; cited from earlier work
[6] = 10 days, doses up to those maximally tolerated
[7] = 8 days, doses up to those maximally tolerated
[8] = 100 μM of the indicated deoxynucleoside(s) for 9 days
[9] = 100 μM of the indicated deoxynucleoside(s) for 8 days
[10] = baseline 16 μM dT, plus 100 μM additional dT or 1 mM dU, 10 days

O=c1[nH]cc(F)c(=O)[nH]1 [5FU, 5-fluorouracil, reference compound]
telomere repeat synthesis / telomere elongation by telomerase [1]: ablated telomere elongation by telomerase; also recorded: completely inhibited telomere elongation; also recorded: ablated telomere lengthening in super-telomerase cells
replication stress signaling [2]: induced similar levels of replication stress signaling
levels of GGAAAG repeats [3]: reduced levels of GGAAAG repeats; also recorded: inhibited T-free telomerase activity

O=C1NC(=NCc2cccs2)S/C1=C\c1ccc2ncccc2c1 [RO-3306, reference compound]
telomere length (293T cells; [6]): No changes were found in telomere length
telomere length (K562 cells; [7]): No changes were found in telomere length

C[C@@]1(CO)[C@H](O)CC[C@@]2(C)[C@H]1CC[C@H]1C[C@@H]3C[C@@]12CC[C@]3(O)CO [aphidicolin, reference compound]
telomere length (293T cells; [6]): telomere elongation after 10 days
telomere repeat synthesis / telomere elongation by telomerase [1]: drove detectable increases in telomere length, albeit to a lesser extent than dT
replication stress signaling [2]: induced similar levels of replication stress signaling

Nc1ccn([C@@H]2O[C@H](CO)[C@@H](O)[C@H]2O)c(=O)n1 [cytidine, 4-amino-1-[(2R,3R,4S,5R)-3,4-dihydroxy-5-(hydroxymethyl)oxolan-2-yl]pyrimidin-2 (1H)-one]
telomere length (telomere length): increase telomere length
toxicity caused by dT [4]: reduce toxicity caused by dT

Nc1ncnc2c1ncn2[C@H]1C[C@H](O)[C@@H](CO)O1 [dA, deoxyadenosine, reference compound]
telomere length (293T cells; [8]): but not deoxyadenosine (dA) or deoxyguanosine (dG), rapidly and robustly increases telomere length
telomere length (K562 cells; [9]): but not deoxyadenosine (dA) or deoxyguanosine (dG), rapidly and robustly increases telomere length

Nc1ccn([C@H]2C[C@H](O)[C@@H](CO)O2)c(=O)n1 [dC, 4-azmino-1-[(2R,4S,5R)-4-hydroxy-5-(hydroxymethyl)oxolan-2-yl]pyrimidin-2 (1H)-one]
water solubility [5]: about 870 mg/mL
toxicity caused by dT [4]: reduce toxicity caused by dT; also recorded: reduces toxicity of dT and improves cell growth compared to dT alone

Nc1nc2c(ncn2[C@H]2C[C@H](O)[C@@H](CO)O2)c(=O)[nH]1 [dG, deoxyguanosine, reference compound]
telomere length (293T cells; [8]): but not deoxyadenosine (dA) or deoxyguanosine (dG), rapidly and robustly increases telomere length
telomere length (K562 cells; [9]): but not deoxyadenosine (dA) or deoxyguanosine (dG), rapidly and robustly increases telomere length

O=c1ccn([C@H]2C[C@H](O)[C@@H](CO)O2)c(=O)[nH]1 [dU, 1-((2R,4S,5R)-4-Hydroxy-5-(hydroxymethyl)tetrahydrofuran-2-yl)pyrimidine-2,4 (1H,3H)-dione]
concentration giving telomere elongation to a degree similar to dT (293T cells; 10× the dT concentration): 1 mM
telomere length with baseline of 16 μM dT (293T cells; added dU, 10 days): increased telomere length
telomere lengthening in TYMS-knockout cells (293T cells; [10]): no longer able to promote telomere lengthening
telomere length (293T cells; dU 1 mM, 10 days (FIG. 9)): elongate telomeres to a degree similar to dT
telomere length (293T cells; dU 1 mM, 10 days (FIG. 9), listed as Deoxyuridine): promotes telomere elongation
telomere length with baseline of 16 μM dT (K562 cells; added dU, 10 days): increased telomere length
telomere lengthening in TYMS-knockout cells (K562 cells; [10]): no longer able to promote telomere lengthening
water solubility [5]: about 5 mg/ml

Nc1nc2ncc(CNc3ccc(C(=O)N[C@@H](CCC(=O)O)C(=O)O)cc3)nc2c(=O)[nH]1 [folate, folic acid, reference compound]
telomere length (293T cells; folate supplementation up to 1 mM, 10 days): did not yield telomere elongation
telomere length (293T cells; folate supplementation up to 1 mM, 10 days, listed as folic acid): but not folic acid supplementation promotes telomere elongation

NC(=O)NO [hydroxyurea, reference compound]
telomere length (293T cells; [6]): No changes were found in telomere length; also recorded: did not change telomere length after 10 days
telomere length (K562 cells; [7]): No changes were found in telomere length
telomere repeat synthesis / telomere elongation by telomerase [1]: ablated telomere elongation by telomerase
replication stress signaling [2]: induced similar levels of replication stress signaling
levels of GGAAAG repeats [3]: reduced levels of GGAAAG repeats

O=c1ccn([C@@H]2O[C@H](CO)[C@@H](O)[C@H]2O)c(=O)[nH]1 [uridine, 1-[(2R,3R,4S,5R)-3,4-Dihydroxy-5-(hydroxymethyl)oxolan-2-yl]pyrimidine-2,4 (1H,3H)-dione]
telomere length (telomere length): increase telomere length
